Consider one molecule from US9724352B2, “Pyrrolo[2,1-F[1,2,4]triazine compounds, preparation methods and applications thereof” (Shanghai Institute of Materia Medica, Chinese Academy of …, priority 2012, dated 2017).

One assay has as its system B-BT474. The assay is described as follows: Proliferation of human cancer cell panel. The settings on record: read-out: inhibitory activity on proliferation. In kind it is cell-based. The source says: (§1) I-30 and I-33 were selected to test their activity on the proliferation of human cancer cells originated from different tissue types.
For a further assay, the system named is LG-NCI-H23. The assay is described as follows: Proliferation of human cancer cell panel. In kind it is cell-based. As to conditions: read-out: inhibitory activity on proliferation.
From the text: as §1

In the next assay the test system is LG-NCI-H460. Briefly: Proliferation of human cancer cell panel. The class given is cell-based. The settings on record: read-out: inhibitory activity on proliferation.
From the text: as §1

For the next assay, the system named is O-SKOV-3. Briefly: Proliferation of human cancer cell panel. In kind it is cell-based. The settings on record: read-out: inhibitory activity on proliferation.
From the text: as §1

For a further assay, the system named is P-PC-3. The assay is described as follows: Proliferation of human cancer cell panel. The settings on record: read-out: inhibitory activity on proliferation. The class given is cell-based.
From the text: as §1

Assay [1] concerns colon cancer cells C-HCT-116. Briefly: Proliferation of human cancer cell panel. The settings on record: read-out: inhibitory activity on proliferation. The class given is cell-based.
From the text: as §1

For assay [2], the system named is colorectal cancer cells C-LOVO. The assay is described as follows: Proliferation of human cancer cell panel. The class given is cell-based. The settings on record: read-out: inhibitory activity on proliferation.
From the text: as §1

The subject of assay [3] is endometrial cancer cells E-RL95-2. Briefly: Proliferation of human cancer cell panel. In kind it is cell-based. The settings on record: read-out: inhibitory activity on proliferation.
From the text: as §1

The test system of assay [4] is gastric cancer cells G-MKN-45. The assay is described as follows: Proliferation of human cancer cell panel. The class given is cell-based. The settings on record: read-out: inhibitory activity on proliferation.
From the text: as §1

Assay [5] deals with hepatoma cells L-BEL-7402. Briefly: Proliferation of human cancer cell panel. The class given is cell-based. The settings on record: read-out: inhibitory activity on proliferation.
From the text: as §1

For assay [6], the system named is rhabdomyosarcoma cells S-RH30. Briefly: Proliferation of human cancer cell panel. In kind it is cell-based. As to conditions: read-out: inhibitory activity on proliferation.
From the text: as §1

Assay [7] concerns human esophagus cancer KYSE 410 xenograft. Briefly: Growth of KYSE 410 xenograft subcutaneously transplanted in nude mouse. The class given is in vivo. As to conditions: for Relative tumor proliferation rate T/C: 50 mg/kg p.o. once every day. The method, then: Well-developed tumors in nude mice were cut into 1.5 mm3 fragments and transplanted s.c. into the right flank of nude mice under sterile conditions. The diameters of subcutaneously transplanted tumours in nude mice were measured with a vernier calipe. When the tumour reached a volume 170 mm3, the mice were randomly assigned into two treatment groups: CYH33 50 mg/kg group or BYL-719 50 mg/kg group. Control groups were given the same amount of normal saline, and treatment groups received tested compounds (p.o). Compounds were administered orally once every day for 3 weeks. Evaluation index of antitumor activity was relative tumor proliferation rate T/C (%), the calculation formula of which was as follows: T/C (%)=(TRTV/CRTV)×100%, TRTV:RTV of treatment group; CRTV:RTV of negative control group.

On to `COC(=O)Nc1cc(C(F)(F)F)c(-c2nc(N3CCOCC3)c3cc(CN4CCN(S(C)(=O)=O)CC4)cn3n2)cn1` [Compound I-33, Methyl (5-(6-((4-(methylsulfonyl)piperazin-1-yl)methyl)-4-morpholinopyrrolo[2,1-f][1,2,4]triazin-2-yl)-4-(trifluoromethyl)pyridin-2-yl)carbamate], for which the IC50 in the assay with B-BT474 was determined as 62 nM; in the assay on LG-NCI-H23, 730 nM; in the assay with LG-NCI-H460 it was 1520 nM; with O-SKOV-3, 277 nM; in the assay with P-PC-3 it was 1580 nM; in [1], 10000 nM. Further, the IC50 in assay [2] stood at 1330 nM; in assay [3] it was 5300 nM; in assay [4], 3400 nM; in assay [5], 4900 nM; in [6], 486 nM. Also, the “growth of KYSE 410 xenograft (in words)” value in [7] (50 mg/kg p.o. every day for 3 weeks) is on record as “significantly slowed down”. Also, the “Relative tumor proliferation rate T/C” value was determined as 100.00% in [7] (d0); 65.56% in assay [7] (d3); 30.11% in assay [7] (d7); 25.23% in [7] (d10); 13.79% in [7] (d14); 10.51% in assay [7] (d17). For the same molecule, in [7] (d21), the “Relative tumor proliferation rate T/C” value stood at 9.13%.
